Laboratory results as given in PMC6182421, “De novo coiled-coil peptides as scaffolds for disrupting protein–protein interactions” (Chemical Science, 2018).

Assays:
hDM2/Flu-p53 = type: binding; conditions: read-out: IC50, inhibition of Flu-p53/hDM2 (positive control)
MCL-1/FITC-BID = biological target: T1, MCL-1/FITC-BID (Homo sapiens, UniProt Q07820); assay: Fluorescence anisotropy competition assay, MCL-1/FITC-BID; type: binding; conditions: for Displacement of FITC-BID from MCL-1 (in words) / IC50 MCL-1/BID: 150 nM MCL-1, 25 nM FITC-BID; for IC50 MCL-1/BID: Table 2, 21 °C, Tris buffer pH 7.4 + 0.01% Triton-X-100, 20-21 h incubation, triplicate
T1 construct: made in house

[1] = Circular dichroism spectroscopy and thermal denaturation; type: physicochemical; conditions: for TM (midpoint of thermal denaturation): MRE222 monitored 5 to 90 °C at 40 °C h^–1, PBS pH 7.4, 50 μM of each peptide; for % helicity: from MRE222, 20 °C, calculation per ref 68
Excerpt: (A & B) CC-Di (pale green), CC-Di_S (lime), CC-Di_E1 (green), CC-Di_E2 (olive). (C & D) CC-Di-A (pink), CC-Di-B (cyan), CC-Di-A : CC-Di-B mixture (purple). (E & F) CC-Di-A_S (red), CC-Di-B (cyan), CC-Di-A_S : CC-Di-B mixture (brown). (G & H) CC-Di-A (pink), CC-Di-B_S (blue), CC-Di-A : CC-Di-B_S mixture (indigo). For heteromeric assemblies (i.e. Panels C–H) the theoretical spectra expected should the pairs of peptides not interact are depicted by grey dashes. Conditions: all experiments were performed in phosphate-buffered saline (PBS; pH 7.4) at 50 μM concentration of each peptide. Equilibrium CD spectra were recorded at 20 °C.
CD spectra were collected using a JASCO J810 spectropolarimeter coupled to a Peltier temperature controller. Peptide-containing solutions were freshly prepared in PBS (pH 7.4) with concentrations calculated from UV absorption at 280 nm (ε(Tyr) = […]).[78] Samples were examined at 50 μM concentration for lone peptides and 50 + 50 μM for two peptide heterodimeric examples, in a 1 mm quartz cuvette. […] Thermal denaturation experiments were conducted by ramping temperature from 5 to 90 °C at 40 °C h^–1. Full spectra (260–190 nm, 5 scans) were recorded at 5 °C and 20 °C, while the CD signal at 222 nm was recorded across the full temperature range at 1 °C intervals (1 nm interval, 1 nm bandwidth, 16 s response time).

[2] = Sedimentation-equilibrium analytical ultracentrifugation; type: physicochemical; conditions: AUC, relative to monomer molecular mass, 20 °C, PBS, 50 μM of each peptide
Procedure: Sedimentation equilibrium experiments were prepared in PBS (137 mM NaCl, 2.7 mM KCl, 8.2 mM Na2HPO4 and 1.8 mM KH2PO4) at 50 μM peptide concentration for homomeric assemblies and 50 μM peptide concentration of both peptides for heteromeric assemblies and to 120 μL. The reference channel was loaded with 130 μL of PBS solution. Equilibrium distributions were measured twice per speed, in 4 krpm increments, and with rotor speeds from 40 to 60 krpm. Data were fitted to single ideal species models using Ultrascan II (; http://www.ultrascan.uthscsa.edu). […] 95% confidence limits were obtained by Monte Carlo analysis of the fits. The partial specific volume for each of the peptides and the buffer density were calculated using Ultrascan II.
Beckman Proteomelab XL -I analytical ultracentrifuge u sing an An -60 Ti rotor and 2-channel centrepiec es.
Sedimentation equilibrium experiments were made up in PBS (137 mM NaCl, 2.7 mM KCl, 8.2 mM
Na2HP O4 and 1.8 mM KH2PO4) at 50 µM peptide concentration for homomeric assemblies and 50 µM
peptide concentration of both peptides for heteromeric assemblies and to 120 µL. The referenc e channel
was loaded with 130 µL of PBS solution. Equilibrium distributions were measured twice per speed, in 4
krpm increments, and with rotor speeds from 40 to 60 krpm. Data were fitted to single ideal species models […]
were calculated using Ultrascan II.

BCL-xL/FITC-BID = biological target: T2, BCL-xL/FITC-BID (Homo sapiens, UniProt Q07817, DEL27-82); assay: Fluorescence anisotropy competition assay, BCL-xL/FITC-BID; type: binding; conditions: competition titration, 20-21 h incubation
T2 construct: made in house

[3] = PBS pH 7.4, 50 μM of each peptide

T1 sequence (Q07820 173-327 limits assumed): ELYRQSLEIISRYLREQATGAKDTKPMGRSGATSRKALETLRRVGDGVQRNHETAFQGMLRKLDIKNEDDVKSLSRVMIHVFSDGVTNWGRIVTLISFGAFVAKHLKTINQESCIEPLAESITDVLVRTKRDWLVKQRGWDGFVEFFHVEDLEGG
T2 sequence (Q07817 with tags, fused parts or gaps DEL27-82 limits assumed, species assumed): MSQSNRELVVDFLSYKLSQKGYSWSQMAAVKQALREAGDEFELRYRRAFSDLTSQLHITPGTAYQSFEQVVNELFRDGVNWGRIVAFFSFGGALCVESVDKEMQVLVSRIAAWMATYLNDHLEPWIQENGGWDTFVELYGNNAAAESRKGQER

Compound	Displacement of FITC-BID from MCL-1 (in words) (MCL-1/FITC-BID)	IC50 MCL-1/BID (MCL-1/FITC-BID)	TM (midpoint of thermal denaturation) [1]	% helicity [1, 3]	also measured
COc1ccc(C2=N[C@@H](c3ccc(Cl)cc3)[C@@H](c3ccc(Cl)cc3)N2C(=O)N2CCNC(=O)C2)c(OC(C)C)c1 [Nutlin-3a]					IC50 (hDM2/Flu-p53): 273 ± 41 nM
Ac-G EIAALEQ EIAALEK ENAALEQ EIAALEQ GYG-NH [CC-Di-A, acidic peptide of the obligate heterodimer CC-Di-AB]	does not bind MCL-1	No response	NA (<0) °C	19%	MRE222 ([1]; CD at 222 nm, 20 °C, PBS pH 7.4, 50 μM of each peptide): –6577 deg cm^2 dmol res^–1
Ac-G EIAALKQ EIAALKK ENAALKQ EIAALKQ GYG-NH [CC-Di, de novo designed homodimeric coiled-coil peptide, unmodified scaffold]	did not displace FITC-BID	No response	75 °C	90%	Oligomer state [2]: 1.96
Ac-G KIAALKQ KIAALKK KNAALKQ KIAALKQ GYG-NH [CC-Di-B, basic peptide of the obligate heterodimer CC-Di-AB]	neither of the free peptides, CC-Di-B or CC-Di-B_S, competed with FITC-BID	No response	38 °C	71%	
Ac-G KIAALKQ KILRLIG DNVALKQ KIAALKQ GYG-NH [CC-Di-B_S, basic peptide with the short motif graft that should partner peptide CC-Di-A]	neither of the free peptides, CC-Di-B or CC-Di-B_S, competed with FITC-BID	No response	27 °C	46%	
Ac-GEIAALKQEILRLIGDNVALKQEIAALKQGYG-NH2 [CC-Di_S]					Inhibition of BCL-xL/FITC-BID (in words) (BCL-xL/FITC-BID): inconclusive
Ac-GEILALKQEILRLIGDNVALKQEILNLKQGYG-NH2 [CC-Di_E1]					IC50 (MCL-1/FITC-BID): 700 ± 50 nM
